Measured values published in patent US20230201217A1 (priority 2019, published 2023).

Tests used:
cynomolgus monkeys = test: 14-day nasogastric gavage GLP toxicity study in cynomolgus monkeys; format: in vivo, cynomolgus monkey
Text: Assessments of neurobehavioral effects and general toxicity were based on mortality, functional observational battery (FOB) evaluations, clinical observations, body weight, and body temperature; ophthalmoscopic, electrocardiographic examinations; and anatomic and clinical pathology. The anatomical pathology evaluations included histopathology of a full list of tissues from all animals and a comprehensive evaluation of the central nervous system (including selected peripheral nerves) utilizing whole body perfusion and special stains. Bone marrow smears from all animals were evaluated microscopically. Complete differentials and myeloid-erythroid (ME) ratios were performed. Toxicokinetic assessment was conducted for the test article and metabolites.

[1] = test system: polychromatic erythrocytes in mouse bone marrow; test: Mouse bone marrow in vivo micronucleus assay
Method: Treatment resulted and clinical signs of lethargy and piloerection at doses of 200-400 mg/kg and in mortality of male and female ICR mice at doses of 300 and 400 mg/kg. The highest non-lethal dose was 250 mg/kg.
These doses were based upon prior toxicology data indicating higher doses were associated with mortality in this species. […] A positive control group received a single oral dose of 60 mg/kg cyclophosphamide on Day 2, the day prior to the scheduled euthanasia. Each group consisted of 6 males. Males only were used as no significant differences in response related to gender were expected based upon prior toxicology and toxicokinetic data. All animals were euthanized on Day 3, the day following the final dose and discarded following bone marrow collection.
All animals were observed twice daily for mortality and moribundity. Bone marrow collection for micronucleus evaluation was performed for 5 of the 6 animals in each group at the scheduled euthanasia (Day 3). All animals were discarded without necropsy. Bone marrow smears were prepared, and the coded slides were counted for polychromatic, normochromatic, and micronucleated polychromatic erythrocytes following the final bone marrow sample collection on Day 3.

CYP2C9 = CYP2C9 (Homo sapiens, UniProt P11712); conditions: recombinant enzyme
Sequence of CYP2C9 (P11712 whole entry): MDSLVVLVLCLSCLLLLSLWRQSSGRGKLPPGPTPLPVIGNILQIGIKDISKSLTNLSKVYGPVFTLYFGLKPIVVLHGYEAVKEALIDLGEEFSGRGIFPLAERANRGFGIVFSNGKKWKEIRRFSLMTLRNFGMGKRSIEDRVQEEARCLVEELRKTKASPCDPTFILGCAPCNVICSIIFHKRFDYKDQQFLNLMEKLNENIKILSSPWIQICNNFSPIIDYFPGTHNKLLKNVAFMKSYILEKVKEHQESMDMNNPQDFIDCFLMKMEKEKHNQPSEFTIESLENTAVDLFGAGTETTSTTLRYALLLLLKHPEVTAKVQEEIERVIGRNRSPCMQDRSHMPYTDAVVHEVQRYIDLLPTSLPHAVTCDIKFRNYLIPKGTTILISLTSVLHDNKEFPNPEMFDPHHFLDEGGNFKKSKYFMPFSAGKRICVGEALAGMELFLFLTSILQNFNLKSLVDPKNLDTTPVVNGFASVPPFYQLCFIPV
Method: Control incubations were performed for each assay with appropriate positive inhibitory controls.

[2] = 400/300 mg/kg/day F, 3 examined
[3] = 400/300 mg/kg/day M, 4 examined

For `COCCC1CC2CN3CCc4c([nH]c5ccccc45)C(C(=O)OC)(C2)C13.Cl` (stereo not drawn) [18-MC HCl, 18-Methoxycoronaridine hydrochloride], the “Bone marrow, femur: Depletion, mixed, minimal; number with observation” value (cynomolgus monkeys; 150 mg/kg/day M) was 1, the “Bone marrow, femur: Depletion, mixed, moderate; number with observation” value (cynomolgus monkeys; 150 mg/kg/day M) was 0 and the “Bone marrow, rib: Depletion, mixed, mild; number with observation” value (from here on “Bone marrow, rib: Depletion, mixed, mild”) (cynomolgus monkeys; 150 mg/kg/day M) was 0. For the same compound, the “Bone marrow, rib: Depletion, mixed, minimal; number with observation” value (cynomolgus monkeys; 150 mg/kg/day M) was 1, the “Bone marrow, rib: Depletion, mixed, moderate; number with observation” value (cynomolgus monkeys; 150 mg/kg/day M) was 0 and the “Bone marrow, rib: Depletion, mixed; number with observation” value (cynomolgus monkeys; 150 mg/kg/day M) was 1. For the same compound, the “Bone marrow, sternum: Depletion, mixed, mild; number with observation” value (cynomolgus monkeys; 150 mg/kg/day M) was 0, the “Bone marrow, sternum: Depletion, mixed, minimal; number with observation” value (cynomolgus monkeys; 150 mg/kg/day M) was 1 and the “Bone marrow, sternum: Depletion, mixed, moderate; number with observation” value (cynomolgus monkeys; 150 mg/kg/day M) was 0. The “Bone marrow, sternum: Depletion, mixed; number with observation” value (cynomolgus monkeys; 150 mg/kg/day M) was 1, the “Liver: Hypertrophy, hepatocellular, panlobular, mild; number with observation” value (shortened to “Liver … mild; number with observation”) (cynomolgus monkeys; 150 mg/kg/day M) was 3 and the “Liver: Hypertrophy, hepatocellular, panlobular, minimal; number with observation” value (shortened to “Liver … minimal; number with observation”) (cynomolgus monkeys; 150 mg/kg/day M) was 0. For the same compound, the “Thymus: Depletion lymphoid, generalized, mild; number with observation” value (cynomolgus monkeys; 150 mg/kg/day M) was 0, the “Thymus: Depletion lymphoid, generalized, moderate; number with observation” value (cynomolgus monkeys; 150 mg/kg/day M) was 0 and the “Thymus: Depletion lymphoid, generalized; number with observation” value (cynomolgus monkeys; 150 mg/kg/day M) was 0. For the same compound, the “Thymus: Depletion, lymphoid, cortex, mild; number with observation” value (from here on “Thymus … cortex, mild; number with observation”) (cynomolgus monkeys; 150 mg/kg/day M) was 2, the “Thymus: Depletion, lymphoid, cortex, minimal; number with observation” value (shortened to “Thymus … minimal; number with observation”) (cynomolgus monkeys; 150 mg/kg/day M) was 1 and the “Thymus: Depletion, lymphoid, cortex, moderate; number with observation” value (cynomolgus monkeys; 150 mg/kg/day M) was 0. The “mean cumulative body gain (Days 1-14)” value (cynomolgus monkeys; 150 mg/kg/day M) was -0.28 kg, the “Bone marrow, femur: Depletion, mixed; number with observation” value (cynomolgus monkeys; 150 mg/kg/day M, 3 examined) was 1 and the “Liver: Hypertrophy, hepatocellular, panlobular; number with observation” value (shortened to “Liver … panlobular; number with observation”) (cynomolgus monkeys; 150 mg/kg/day M, 3 examined) was 3. The “Thymus: Depletion, lymphoid, cortex; number with observation” value (“Thymus … cortex; number with observation” for short) (cynomolgus monkeys; 150 mg/kg/day M, 3 examined) was 3, the mortality (cynomolgus monkeys; 400 mg/kg, first day of dosing) was “one male died” and the “Bone marrow, femur: Depletion, mixed, mild; number with observation” value (cynomolgus monkeys; 400/300 mg/kg/day F) was 0. For the same compound, the “Bone marrow, femur: Depletion, mixed, minimal; number with observation” value (cynomolgus monkeys; 400/300 mg/kg/day F) was 1, the “Bone marrow, femur: Depletion, mixed, moderate; number with observation” value (cynomolgus monkeys; 400/300 mg/kg/day F) was 0 and the “Bone marrow, rib: Depletion, mixed, mild” value (cynomolgus monkeys; 400/300 mg/kg/day F) was 1. For the same compound, the “Bone marrow, rib: Depletion, mixed, minimal; number with observation” value (cynomolgus monkeys; 400/300 mg/kg/day F) was 0, the “Bone marrow, rib: Depletion, mixed, moderate; number with observation” value (cynomolgus monkeys; 400/300 mg/kg/day F) was 0 and the “Bone marrow, rib: Depletion, mixed; number with observation” value (cynomolgus monkeys; 400/300 mg/kg/day F) was 1. For the same compound, the “Bone marrow, sternum: Depletion, mixed, mild; number with observation” value (cynomolgus monkeys; 400/300 mg/kg/day F) was 1, the “Bone marrow, sternum: Depletion, mixed, minimal; number with observation” value (cynomolgus monkeys; 400/300 mg/kg/day F) was 0 and the “Bone marrow, sternum: Depletion, mixed, moderate; number with observation” value (cynomolgus monkeys; 400/300 mg/kg/day F) was 0. The “Bone marrow, sternum: Depletion, mixed; number with observation” value (cynomolgus monkeys; 400/300 mg/kg/day F) was 1, the “Liver … mild; number with observation” value (cynomolgus monkeys; 400/300 mg/kg/day F) was 3 and the “Liver … minimal; number with observation” value (cynomolgus monkeys; 400/300 mg/kg/day F) was 0. The “Thymus: Depletion lymphoid, generalized, mild; number with observation” value (cynomolgus monkeys; 400/300 mg/kg/day F) was 2, the “Thymus: Depletion lymphoid, generalized, moderate; number with observation” value (cynomolgus monkeys; 400/300 mg/kg/day F) was 1 and the “Thymus: Depletion lymphoid, generalized; number with observation” value (cynomolgus monkeys; 400/300 mg/kg/day F) was 3. For the same compound, the “Thymus … cortex, mild; number with observation” value (cynomolgus monkeys; 400/300 mg/kg/day F) was 0, the “Thymus … minimal; number with observation” value (cynomolgus monkeys; 400/300 mg/kg/day F) was 0 and the “Thymus: Depletion, lymphoid, cortex, moderate; number with observation” value (cynomolgus monkeys; 400/300 mg/kg/day F) was 0. The “mean cumulative body gain (Days 1-14)” value (cynomolgus monkeys; 400/300 mg/kg/day F) was -0.09 kg, the “Bone marrow, femur: Depletion, mixed; number with observation” value (cynomolgus monkeys; [2]) was 1 and the “Liver … panlobular; number with observation” value (cynomolgus monkeys; [2]) was 3. For the same compound, the “Thymus … cortex; number with observation” value (cynomolgus monkeys; [2]) was 0, the “Bone marrow, femur: Depletion, mixed, mild; number with observation” value (cynomolgus monkeys; 400/300 mg/kg/day M) was 1 and the “Bone marrow, femur: Depletion, mixed, minimal; number with observation” value (cynomolgus monkeys; 400/300 mg/kg/day M) was 0. The “Bone marrow, femur: Depletion, mixed, moderate; number with observation” value (cynomolgus monkeys; 400/300 mg/kg/day M) was 1, the “Bone marrow, rib: Depletion, mixed, mild” value (cynomolgus monkeys; 400/300 mg/kg/day M) was 1 and the “Bone marrow, rib: Depletion, mixed, minimal; number with observation” value (cynomolgus monkeys; 400/300 mg/kg/day M) was 0. For the same compound, the “Bone marrow, rib: Depletion, mixed, moderate; number with observation” value (cynomolgus monkeys; 400/300 mg/kg/day M) was 1, the “Bone marrow, rib: Depletion, mixed; number with observation” value (cynomolgus monkeys; 400/300 mg/kg/day M) was 2 and the “Bone marrow, sternum: Depletion, mixed, mild; number with observation” value (cynomolgus monkeys; 400/300 mg/kg/day M) was 1. For the same compound, the “Bone marrow, sternum: Depletion, mixed, minimal; number with observation” value (cynomolgus monkeys; 400/300 mg/kg/day M) was 0, the “Bone marrow, sternum: Depletion, mixed, moderate; number with observation” value (cynomolgus monkeys; 400/300 mg/kg/day M) was 1 and the “Bone marrow, sternum: Depletion, mixed; number with observation” value (cynomolgus monkeys; 400/300 mg/kg/day M) was 2. For the same compound, the “Liver … mild; number with observation” value (cynomolgus monkeys; 400/300 mg/kg/day M) was 3, the “Liver … minimal; number with observation” value (cynomolgus monkeys; 400/300 mg/kg/day M) was 0 and the “Thymus: Depletion lymphoid, generalized, mild; number with observation” value (cynomolgus monkeys; 400/300 mg/kg/day M) was 1. The “Thymus: Depletion lymphoid, generalized, moderate; number with observation” value (cynomolgus monkeys; 400/300 mg/kg/day M) was 2, the “Thymus: Depletion lymphoid, generalized; number with observation” value (cynomolgus monkeys; 400/300 mg/kg/day M) was 3 and the “Thymus … cortex, mild; number with observation” value (cynomolgus monkeys; 400/300 mg/kg/day M) was 0. The “Thymus … minimal; number with observation” value (cynomolgus monkeys; 400/300 mg/kg/day M) was 0, the “Thymus: Depletion, lymphoid, cortex, moderate; number with observation” value (cynomolgus monkeys; 400/300 mg/kg/day M) was 0 and the “mean cumulative body gain (Days 1-14)” value (cynomolgus monkeys; 400/300 mg/kg/day M) was -0.23 kg. The “Bone marrow, femur: Depletion, mixed; number with observation” value (cynomolgus monkeys; [3]) was 2, the “Liver … panlobular; number with observation” value (cynomolgus monkeys; [3]) was 3 and the “Thymus … cortex; number with observation” value (cynomolgus monkeys; [3]) was 0. The NOAEL (cynomolgus monkeys; 14 days) was 50 mg/kg/day, the highest non-lethal dose (cynomolgus monkeys; cynomolgus monkey, in vivo) was 300 mg/kg and the lethality ([1]; GLP, 120 mg/kg/day group, within 3 hours of dosing) was “Lethality was observed in a single animal”. For the same compound, the “incidence of micro-nucleated polychromatic erythrocytes (MPCE)” value ([1]; non-GLP, 250 mg/kg and less) was “No significant increase”, the highest non-lethal dose ([1]; non-GLP, single oral dose, suspension in PBS pH 7.4, ICR mice) was 250 mg/kg and the IC50 (CYP2C9) was < 1.5 µM.
